Source: US12480137B2, “Plants having increased tolerance to herbicides” (BASF SE, priority 2014, dated 2025)

How the values were obtained:
Type in all cases: in vivo, Arabidopsis thaliana
[1] = tested on: Arabidopsis mutant line Cesa1_G1009D; test: Growth inhibition of Arabidopsis lines in 48-well plates, tolerance factor from IC50; details: growth inhibition seven to ten days after seeding
Description: (§1) For selection of cellulose biosynthesis inhibitor resistant plants EMS mutagenized seed populations of Arabidopsis thaliana are used. EMS mutagenized seed populations are either bought from Lehle Seeds (1102 South Industrial Blvd. Suite D, Round Rock, Texas USA) or are generated as described elsewhere (Heim D R, et. al. (1989) Plant Physiol. 90: 146-150). Causative mutations in CESA wildtype sequences (e.g. SEQ ID NO: 1 or 3) are identified as described by Scheible W R et. al. (2001, Proc. Natl. Acad. of Sci. 98: 10079-10084), McCourt et. al. (WO2013/142968) or with the use of next generation sequencing methods as described by Austin R S, et. al. (2011) Plant Journal 67: 715-725.
(§2) Selected Arabidopsis thaliana lines were assayed for improved resistance to azines like 6-cyclopentyl-N4-(2,3,4,5,6-pentafluorophenyl)-1,3,5-triazine-2,4-diamine; 6-(1-fluoro-1-methyl-ethyl)-N4-(2,3,4,5,6-pentafluorophenyl)-1,3,5-triazine-2,4-diamine; 6-cyclohexyl-N2-(2,3,4,5,6-pentafluorophenyl)-1,3,5-triazine-2,4-diamine; 6-(2,6-difluorophenyl)-N2-(2,3,5,6-tetrafluorophenyl)-1,3,5-triazine-2,4-diamine; N2-(4-chloro-3,5,6-trifluoro-2-pyridyl)-6-(1-fluoro-1-methyl-ethyl)-1,3,5-triazine-2,4-diamine in 48-well plates. Therefore, M2 or M3 seeds are surface sterilized by stirring for 5 min in ethanol+water (70+30 by volume), rinsing one time with ethanol+water (70+30 by volume) and two times with sterile, deionized water. The seeds are resuspended in 0.1% agar dissolved in water (w/v) Four to five seeds per well are plated on solid nutrient medium consisting of half-strength murashige skoog nutrient solution, pH 5.8 (Murashige and Skoog (1962) Physiologia Plantarum 15: 473-497). Compounds are dissolved in dimethylsulfoxid (DMSO) and added to the medium prior solidification (final DMSO concentration 0.1%). Multi well plates are incubated in a growth chamber at 22° C., 75% relative humidity and 110 μmol Phot*m^−2*s^−1 with 14:10 h light:dark photoperiod. Growth inhibition is evaluated seven to ten days after seeding in comparison to wild type plants. Tolerance factors are calculated based on IC50 values of growth inhibition of transformed versus non-transformed Arabidopsis plants (Table 3).

[2] = tested on: Arabidopsis mutant line Cesa1_G1013R; test: as above; details: growth inhibition seven to ten days after seeding
Description: as §1, §2

[3] = tested on: Arabidopsis mutant line Cesa1_P1010L; test: as above; details: growth inhibition seven to ten days after seeding
Description: as §1, §2

[4] = tested on: Arabidopsis mutant line Cesa3_S1037F; test: as above; details: growth inhibition seven to ten days after seeding
Description: as §1, §2

[5] = tested on: Arabidopsis mutant line Cesa3_S1040L; test: as above; details: growth inhibition seven to ten days after seeding
Description: as §1, §2

[6] = tested on: Arabidopsis mutant line Cesa3_S983F; test: as above; details: growth inhibition seven to ten days after seeding
Description: as §1, §2

[7] = tested on: wildtype Arabidopsis plants; test: as above; details: growth inhibition seven to ten days after seeding
Description: as §1, §2

A. thaliana WT L. erecta = test: Greenhouse phytotox, post-emergent treatment 6 weeks after sowing
Experimental: (§3) Additionally, M2 or M3 Arabidopsis plants are tested for improved tolerance to cellulose biosynthesis-inhibiting herbicides in greenhouse studies (e. g. with the following cellulose biosynthesis-inhibiting herbicides: 6-cyclopentyl-N4-(2,3,4,5,6-pentafluorophenyl)-1,3,5-triazine-2,4-diamine; 6-(1-fluoro-1-methyl-ethyl)-N4-(2,3,4,5,6-pentafluorophenyl)-1,3,5-triazine-2,4-diamine; N4-(4-chloro-3,5,6-trifluoro-2-pyridyl)-6-(1-fluoro-1-methyl-ethyl)-1,3,5-triazine-2,4-diamine; 6-(2,6-difluorophenyl)-N4-(2,3,5,6-tetrafluorophenyl)-1,3,5-triazine-2,4-diamine; N4-(4-bromo-2,3,5,6-tetrafluoro-phenyl)-6-(1-fluoro-1-methyl-ethyl)-1,3,5-triazine-2,4-diamine.

[8] = tested on: Cesa1_G1009D, fpx2-3 mutant line; test: as above
Experimental: as §3

[9] = tested on: Cesa1_G1013R, fpx2-1 mutant line; test: as above
Experimental: as §3

[10] = tested on: Cesa1_P1010L, fpx2-2 mutant line; test: as above
Experimental: as §3

[11] = tested on: Cesa3_S1037F, fpx1-2 mutant line; test: as above
Experimental: as §3

[12] = tested on: Cesa3_S1040L, fpx1-1 mutant line; test: as above
Experimental: as §3

[13] = tested on: Cesa3_S983F, fpx1-3 mutant line; test: as above
Experimental: as §3

What does the source list for `Nc1nc(Nc2c(F)c(F)c(F)c(F)c2F)nc(C2CCCC2)n1` [6-cyclopentyl-N4-(2,3,4,5,6-pentafluorophenyl)-1,3,5-triazine-2,4-diamine]?
Relative tolerance rate (wildtype = 1.0) [1]: 3; Relative tolerance rate (wildtype = 1.0) [2]: 25; Relative tolerance rate (wildtype = 1.0) [3]: 3; Relative tolerance rate (wildtype = 1.0) [4]: 75; Relative tolerance rate (wildtype = 1.0) [5]: 56; Relative tolerance rate (wildtype = 1.0) [6]: 75; Relative tolerance rate (wildtype = 1.0) [7]: 1; Phytotox value on a scale from 0-100 (100 is 100% damage) (A. thaliana WT L. erecta; 7.88 g ai/ha): 68; Phytotox value on a scale from 0-100 (100 is 100% damage) (A. thaliana WT L. erecta; 15.75 g ai/ha): 80; Phytotox value on a scale from 0-100 (100 is 100% damage) (A. thaliana WT L. erecta; 31.5 g ai/ha): 78; Phytotox value on a scale from 0-100 (100 is 100% damage) (A. thaliana WT L. erecta; 63 g ai/ha): 98; Phytotox value on a scale from 0-100 (100 is 100% damage) ([8]; 7.88 g ai/ha): 45; Phytotox value on a scale from 0-100 (100 is 100% damage) ([8]; 15.75 g ai/ha): 63; Phytotox value on a scale from 0-100 (100 is 100% damage) ([8]; 31.5 g ai/ha): 73; Phytotox value on a scale from 0-100 (100 is 100% damage) ([8]; 63 g ai/ha): 75; Phytotox value on a scale from 0-100 (100 is 100% damage) ([9]; 7.88 g ai/ha): 38; Phytotox value on a scale from 0-100 (100 is 100% damage) ([9]; 15.75 g ai/ha): 55; Phytotox value on a scale from 0-100 (100 is 100% damage) ([9]; 31.5 g ai/ha): 65; Phytotox value on a scale from 0-100 (100 is 100% damage) ([9]; 63 g ai/ha): 80; Phytotox value on a scale from 0-100 (100 is 100% damage) ([10]; 7.88 g ai/ha): 63; Phytotox value on a scale from 0-100 (100 is 100% damage) ([10]; 15.75 g ai/ha): 70; Phytotox value on a scale from 0-100 (100 is 100% damage) ([10]; 31.5 g ai/ha): 78; Phytotox value on a scale from 0-100 (100 is 100% damage) ([10]; 63 g ai/ha): 93; Phytotox value on a scale from 0-100 (100 is 100% damage) ([11]; 7.88 g ai/ha): 55; Phytotox value on a scale from 0-100 (100 is 100% damage) ([11]; 15.75 g ai/ha): 58; Phytotox value on a scale from 0-100 (100 is 100% damage) ([11]; 31.5 g ai/ha): 70; Phytotox value on a scale from 0-100 (100 is 100% damage) ([11]; 63 g ai/ha): 78; Phytotox value on a scale from 0-100 (100 is 100% damage) ([12]; 7.88 g ai/ha): 0; Phytotox value on a scale from 0-100 (100 is 100% damage) ([12]; 15.75 g ai/ha): 5; Phytotox value on a scale from 0-100 (100 is 100% damage) ([12]; 31.5 g ai/ha): 35; Phytotox value on a scale from 0-100 (100 is 100% damage) ([12]; 63 g ai/ha): 68; Phytotox value on a scale from 0-100 (100 is 100% damage) ([13]; 7.88 g ai/ha): 25; Phytotox value on a scale from 0-100 (100 is 100% damage) ([13]; 15.75 g ai/ha): 65; Phytotox value on a scale from 0-100 (100 is 100% damage) ([13]; 31.5 g ai/ha): 55; Phytotox value on a scale from 0-100 (100 is 100% damage) ([13]; 63 g ai/ha): 73
